Laboratory results reported in patent US8378172B2, “Methods using acyl-CoA binding proteins to enhance low-temperature tolerance in genetically modified plants” (The University of Hong Kong, priority 2009, dated 2013).

Assays:
(His)6-ACBP6 [1] = target: T1, (His)6-ACBP6 (Arabidopsis thaliana, UniProt P57752); assay: in vitro filter-binding assay, (His)6-ACBP6/lipid binding on nitrocellulose; details: 1 μg/ml (His)6-ACBP6
T1 construct: made in house; host or cells: Escherichia coli
Procedure: A, Purification of (His)6-ACBP6 recombinant protein. […] M, marker; lane 1, flow through fraction; lane 2, washing fraction at pH 6.3; lanes 3-8, eluted fractions at pH 5.9; lanes 9-12, eluted fractions at pH 4.5. B, (His)6-ACBP6/lipid binding on filters. Various concentrations (0, 12.5, 25.0 and 32.5 μM) of lipids (PA, PC and LysoPC) were spotted onto nitrocellulose and incubated with 1 μg/ml of purified (His)6-ACBP6 protein. The (His)6-ACBP6/lipid binding was detected by immunoblotting with HRP-conjugated anti-penta-His antibodies. C, Effect of PC acyl species on (His)6-ACBP6/lipid binding. Fifty μM lipid (PC, 16:0-PC, 18:0-PC, 18:1-PC, 18:2-PC or DMPC) spotted onto nitrocellulose was incubated with 1 μg/ml of purified (His)6-ACBP6 protein. The (His)6-ACBP6/lipid binding was detected by immunoblotting with HRP-conjugated anti-penta-His antibodies. […]
Expression and purification of His-tagged ACBP6 recombinant protein was carried out according to Xiao et al. (Plant J 54: 141-151, 2008). […] Following incubated with the HRP-conjugated anti-penta-His antibodies (1:2,000; QIAGEN, Cat. No. 1014922) for 1 h at RT, the filter was again washed 3 times with TTBS, each for 10 min and then detected with the ECL Western Blotting Detection Kit (Amersham) following the manufacturer's protocols.
T1 sequence (P57752 other isoform, or with tags, fused parts or gaps): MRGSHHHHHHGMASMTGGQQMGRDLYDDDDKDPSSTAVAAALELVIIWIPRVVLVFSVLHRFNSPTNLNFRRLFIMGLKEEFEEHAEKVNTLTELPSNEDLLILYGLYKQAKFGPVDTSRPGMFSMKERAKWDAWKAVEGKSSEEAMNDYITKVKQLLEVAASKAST

(His)6-ACBP4 = target: T2, (His)6-ACBP4 (Arabidopsis thaliana, UniProt Q9MA55); details: recombinant (His)6-ACBP4; read-out: dissociation constant (Kd) in binding oleoyl-CoA esters; cited from earlier work
T2 construct: (His)6
T2 sequence (Q9MA55 1-668): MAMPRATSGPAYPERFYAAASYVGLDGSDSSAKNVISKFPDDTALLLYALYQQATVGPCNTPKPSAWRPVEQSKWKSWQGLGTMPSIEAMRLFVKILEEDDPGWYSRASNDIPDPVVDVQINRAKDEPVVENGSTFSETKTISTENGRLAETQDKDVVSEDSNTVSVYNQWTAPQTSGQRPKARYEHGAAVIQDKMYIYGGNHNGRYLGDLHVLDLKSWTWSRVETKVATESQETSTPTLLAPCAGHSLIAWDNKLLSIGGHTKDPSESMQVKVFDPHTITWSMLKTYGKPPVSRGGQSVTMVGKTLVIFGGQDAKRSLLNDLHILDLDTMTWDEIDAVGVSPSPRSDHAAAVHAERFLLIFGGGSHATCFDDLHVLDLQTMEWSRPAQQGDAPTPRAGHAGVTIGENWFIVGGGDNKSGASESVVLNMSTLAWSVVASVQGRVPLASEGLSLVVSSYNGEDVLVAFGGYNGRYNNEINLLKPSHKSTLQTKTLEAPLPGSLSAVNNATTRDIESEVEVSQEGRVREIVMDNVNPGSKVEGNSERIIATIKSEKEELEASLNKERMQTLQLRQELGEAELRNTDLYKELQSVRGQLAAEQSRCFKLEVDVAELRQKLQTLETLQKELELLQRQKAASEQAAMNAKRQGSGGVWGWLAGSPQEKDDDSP

(His)6-ACBP6 [2] = target: T3, (His)6-ACBP6 (Arabidopsis thaliana, UniProt P57752); details: recombinant (His)6-ACBP6; read-out: dissociation constant (Kd) in binding oleoyl-CoA esters; cited from earlier work
T3 construct: (His)6
T3 sequence (P57752 1-92): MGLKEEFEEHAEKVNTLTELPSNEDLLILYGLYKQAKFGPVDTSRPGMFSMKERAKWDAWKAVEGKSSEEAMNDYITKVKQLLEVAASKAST

(His)6-ACBP5 = target: T4, (His)6-ACBP5 (Arabidopsis thaliana, UniProt Q8RWD9); details: recombinant (His)6-ACBP5; read-out: dissociation constant (Kd) in binding oleoyl-CoA esters; cited from earlier work
T4 construct: (His)6
T4 sequence (Q8RWD9 1-648): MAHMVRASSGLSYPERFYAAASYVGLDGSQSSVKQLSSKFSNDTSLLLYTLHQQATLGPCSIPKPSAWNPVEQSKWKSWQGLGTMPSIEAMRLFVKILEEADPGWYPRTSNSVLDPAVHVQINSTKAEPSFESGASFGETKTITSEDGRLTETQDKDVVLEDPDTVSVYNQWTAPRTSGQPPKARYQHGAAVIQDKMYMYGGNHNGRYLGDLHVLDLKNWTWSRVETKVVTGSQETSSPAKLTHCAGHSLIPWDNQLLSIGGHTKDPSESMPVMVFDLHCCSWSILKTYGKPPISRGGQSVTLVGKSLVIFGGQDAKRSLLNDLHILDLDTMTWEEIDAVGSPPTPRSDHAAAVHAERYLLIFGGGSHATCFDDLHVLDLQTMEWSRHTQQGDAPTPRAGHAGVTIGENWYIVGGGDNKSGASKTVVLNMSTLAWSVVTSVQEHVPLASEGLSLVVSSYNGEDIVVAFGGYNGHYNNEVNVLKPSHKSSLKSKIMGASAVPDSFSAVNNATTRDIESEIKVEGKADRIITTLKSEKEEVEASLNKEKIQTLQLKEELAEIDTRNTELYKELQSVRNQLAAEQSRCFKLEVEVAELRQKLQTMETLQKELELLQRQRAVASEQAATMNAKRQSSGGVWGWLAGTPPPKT

For `CCCCCCCCCCCCCC(=O)OC[C@H](COP(=O)([O-])OCC[N+](C)(C)C)OC(=O)CCCCCCCCCCCCC` [DMPC, 1,2-dimyristoyl-sn-glycero-3-phosphocholine], the “effect of PC acyl species on (His)6-ACBP6/lipid binding” value ((His)6-ACBP6 [1]; 50 μM lipid spotted, FIG. 7C) was “did not bind”.
In the case of “1,2-diacyl-sn-glocero-3-phosphocholine [PC]”, the “(His)6-ACBP6/lipid binding on filters” value ((His)6-ACBP6 [1]; 0, 12.5, 25.0 and 32.5 μM lipid spotted, FIG. 7B) is reported as “binds”.
In the case of `CCCCCCCC/C=C\CCCCCCCC(=O)SCCNC(=O)CCNC(=O)[C@H](O)C(C)(C)COP(=O)(O)OP(=O)(O)OC[C@H]1O[C@@H](n2cnc3c(N)ncnc32)[C@H](O)[C@@H]1OP(=O)(O)O` [oleoyl-CoA], the Kd ((His)6-ACBP4) is listed as 560 nM, the Kd ((His)6-ACBP6 [2]) is listed as 3700 nM and the Kd ((His)6-ACBP5) is listed as 680 nM.
